Results from patent US6511670B1, “(poly)thiaalkynoic compounds and pharmaceutical/cosmetic compositions comprised thereof” (Societe L'Oreal S.A., priority 1999, dated 2003).

What was measured:
Format in all cases: cell-based
PPAR-α = target: T1, PPAR-α (Homo sapiens, UniProt Q07869); test: transactivation test of PPAR-type receptors (luciferase reporter, cotransfected HeLa cells), PPAR-α; conditions: HeLa cells cotransfected with PPAR-α expression vector and PPRE-luciferase reporter, 24 hours, n.a. = not active; for AC50: concentration giving 50% of the activity of the reference molecule; for α Ymax %: relative to Reference 1
T1 construct: expressed in transfected cells; host or cells: HeLa cells
T1 sequence (Q07869 1-468): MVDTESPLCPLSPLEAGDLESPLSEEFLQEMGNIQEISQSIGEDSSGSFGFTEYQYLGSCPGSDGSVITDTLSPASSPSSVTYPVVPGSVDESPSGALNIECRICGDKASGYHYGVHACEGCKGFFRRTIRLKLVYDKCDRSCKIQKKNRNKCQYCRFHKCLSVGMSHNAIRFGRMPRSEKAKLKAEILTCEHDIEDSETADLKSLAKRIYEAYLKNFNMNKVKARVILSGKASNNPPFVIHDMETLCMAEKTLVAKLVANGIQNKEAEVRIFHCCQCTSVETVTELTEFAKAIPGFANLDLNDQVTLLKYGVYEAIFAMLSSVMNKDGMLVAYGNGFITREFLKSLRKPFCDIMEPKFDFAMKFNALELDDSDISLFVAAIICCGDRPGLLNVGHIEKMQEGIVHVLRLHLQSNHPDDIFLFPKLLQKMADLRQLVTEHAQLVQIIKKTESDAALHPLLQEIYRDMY
Protocol: (§1) This activity is determined with the aid of a reporter enzyme (luciferase) for the activation due to the compound via one of the PPAR receptors, and more particularly of the PPAR-α type.
(§2) The biological tests carried out corresponded to those described in the application. […] Thus, the activating power via PPAR-α, PPAR-γ or PPAR-δ of molecules was evaluated with a transactivation test in which HeLa cells were cotransfected with an expression vector encoding these receptors and a reporter plasmid containing a PPRE response element cloned upstream of a portion of a promoter of the SV40 virus and of the luciferase gene. The cotransfected cells were treated for 24 hours with the molecules to be tested and the activity of the luciferase was determined by luminescence.

PPAR-δ = target: T2, PPAR-δ (Homo sapiens, UniProt Q03181); test: transactivation test of PPAR-type receptors (luciferase reporter, cotransfected HeLa cells), PPAR-δ; conditions: HeLa cells cotransfected with PPAR-δ expression vector and PPRE-luciferase reporter, 24 hours, n.a. = not active; for AC50: concentration giving 50% of the activity of the reference molecule; for δ Ymax %: relative to Reference 2
T2 construct: expressed in transfected cells; host or cells: HeLa cells
T2 sequence (Q03181 1-441): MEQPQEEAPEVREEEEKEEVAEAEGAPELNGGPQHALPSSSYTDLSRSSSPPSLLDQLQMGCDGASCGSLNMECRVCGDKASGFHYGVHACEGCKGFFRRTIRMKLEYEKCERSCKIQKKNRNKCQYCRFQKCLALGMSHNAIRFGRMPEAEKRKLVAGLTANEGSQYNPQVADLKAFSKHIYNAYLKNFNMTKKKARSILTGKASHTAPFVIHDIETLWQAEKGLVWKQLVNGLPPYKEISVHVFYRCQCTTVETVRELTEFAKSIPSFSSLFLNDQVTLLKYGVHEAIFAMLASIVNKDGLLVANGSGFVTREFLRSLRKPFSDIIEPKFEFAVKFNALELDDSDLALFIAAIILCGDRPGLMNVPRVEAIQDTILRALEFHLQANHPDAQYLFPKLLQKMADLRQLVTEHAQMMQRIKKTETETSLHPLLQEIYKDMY
Protocol: as §1, §2

PPAR-γ = target: T3, PPAR-γ (Homo sapiens, UniProt P37231); test: transactivation test of PPAR-type receptors (luciferase reporter, cotransfected HeLa cells), PPAR-γ; conditions: HeLa cells cotransfected with PPAR-γ expression vector and PPRE-luciferase reporter, 24 hours, n.a. = not active; for AC50: concentration giving 50% of the activity of the reference molecule; for γ Ymax %: relative to Reference 2
T3 construct: expressed in transfected cells; host or cells: HeLa cells
T3 sequence (P37231 1-505): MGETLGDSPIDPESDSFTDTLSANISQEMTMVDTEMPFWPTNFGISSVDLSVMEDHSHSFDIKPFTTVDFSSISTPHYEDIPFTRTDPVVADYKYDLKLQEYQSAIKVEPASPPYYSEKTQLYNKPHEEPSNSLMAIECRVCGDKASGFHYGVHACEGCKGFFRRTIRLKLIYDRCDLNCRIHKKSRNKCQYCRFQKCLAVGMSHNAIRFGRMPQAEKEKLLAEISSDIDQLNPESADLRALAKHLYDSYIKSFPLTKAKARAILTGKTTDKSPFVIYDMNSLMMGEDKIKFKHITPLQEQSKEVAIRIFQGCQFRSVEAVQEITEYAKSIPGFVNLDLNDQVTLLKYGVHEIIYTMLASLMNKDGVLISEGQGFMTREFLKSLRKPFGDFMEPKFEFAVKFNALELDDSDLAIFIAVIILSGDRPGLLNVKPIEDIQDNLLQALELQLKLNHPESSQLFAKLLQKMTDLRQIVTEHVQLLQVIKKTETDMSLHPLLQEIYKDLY
Protocol: as §1, §2

| Compound | AC50 (PPAR-α) [µM] | α Ymax % (PPAR-α) [%] | AC50 (PPAR-δ) [µM] | δ Ymax % (PPAR-δ) [%] | AC50 (PPAR-γ) [µM] | γ Ymax % (PPAR-γ) [%] |
| --- | --- | --- | --- | --- | --- | --- |
| CCCCCC#CCC#CCC#CCC#CCSCC(=O)O [Comparative Example 1, 3-thia-5,8,11,14-eicosatetraynoic acid] | 4 | 128 | 7 | 125 | 3 | 83 |
| CCCCCCCCC#CCC#CCC#CCSCC(=O)O [Comparative Example 2, 3-thia-5,8,11-eicosatriynoic acid] | 5 | 112 | 11 | 74 | 4 | 58 |
| CCCCCCCCSCC#CCSCC(=O)O [Example 8, 3,8-Dithia-5-hexadecynoic Acid] | 2.9 | 91 |  |  |  |  |
| CCCCCCCCCCC#CCSCC(=O)O [Example 10, 3-Thia-5-hexadecynoic Acid] | 1.5 | 142 |  |  |  |  |
| CCCCCCCCC#CCC#CCSCC(=O)O [Example 14, 3-Thia-5,8-heptadecadiynoic Acid] | 1 | 116 |  |  |  |  |
| CCCCCC#CCC#CCC#CCSCC(=O)O [Example 21, 3-Thia-5,8,11-heptadecatriynoic Acid] | 3 | 138 |  |  |  |  |
| Cc1cccc(Nc2cc(Cl)nc(SCC(=O)O)n2)c1C [Reference 1, [4-chloro-6-(2,3-dimethylphenylamino)pyrimidin-2-ylsulfanyl]acetic acid] |  | 100 |  |  |  |  |
